According to patent publication US10381110B2, “Molecules” (University of Dundee, priority 2010, dated 2019):

Tests used:
dopamine D5 = dopamine D5 (Homo sapiens, UniProt P21918); experiment: Secondary radioligand binding assay (Ki); conditions: read-out: Experimental Receptor Binding Data-Ki D5; Table 25, GPCR panel
Method: (§1) Radioligand is diluted to five times the assay concentration (see Table 18) in Standard Binding Buffer. Typically, the assay concentration of radioligand is a value between one half the KD and the KD of a particular radioligand at its target. 50 μl aliquots of radioligand are dispensed into the wells of a 96-well plate containing 100 μl of Standard Binding Buffer. Then, duplicate 50 μl aliquots of the test and reference compound dilutions are added.
The 250 μl reactions are incubated at room temperature and shielded from light (to prevent photolysis of light-sensitive ligands) for 1.5 hours, then harvested by rapid filtration onto Whatman GF/B glass fiber filters pre-soaked with 0.3% polyethyleneimine using a 96-well Brandel harverster. Four rapid 500 μl washes are performed with chilled Standard Binding Buffer to reduce non-specific binding. Filters are placed in 6 ml scintillation tubes and allowed to dry overnight. The next day, 4 ml of EcoScint scintillation cocktail (National Diagnostics) are added to each tube. The tubes are capped, labeled, and counted by liquid scintillation counting. […] The filter mats are dried, then scintillant is melted onto the filters and the radioactivity retained on the filters is counted in a Microbeta scintillation counter. […]

5-HT2C = target: T1, 5-HT2C (Homo sapiens, UniProt P28335); experiment: Secondary radioligand binding assay (Ki)
T1 sequence (P28335 33-458): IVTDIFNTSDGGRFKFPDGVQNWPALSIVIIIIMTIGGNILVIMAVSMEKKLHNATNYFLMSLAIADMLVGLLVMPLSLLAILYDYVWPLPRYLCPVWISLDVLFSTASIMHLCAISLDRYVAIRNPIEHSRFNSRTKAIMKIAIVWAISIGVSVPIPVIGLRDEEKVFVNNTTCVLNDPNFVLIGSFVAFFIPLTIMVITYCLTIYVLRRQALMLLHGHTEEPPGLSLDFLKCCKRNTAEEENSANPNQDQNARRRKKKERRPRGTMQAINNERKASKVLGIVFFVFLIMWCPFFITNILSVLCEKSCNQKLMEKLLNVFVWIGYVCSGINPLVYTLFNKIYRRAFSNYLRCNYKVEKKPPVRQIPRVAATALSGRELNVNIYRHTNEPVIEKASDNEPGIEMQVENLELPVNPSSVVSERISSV
Method: Assay Buffer: Standard Binding Buffer (50 mM Tris-HCl, 10 mM MgCl2, 1 mM EDTA, pH 7.4)
Membrane Fraction Source: Transiently or stably transfected cell lines (e.g., HEK293, COS, CHO, NIH3T3)
as §1
The 250 μl reactions are incubated at room temperature and shielded from light (to prevent photolysis of light-sensitive ligands) for 1.5 hours, then harvested by rapid filtration onto Whatman GF/B glass fiber filters pre-soaked with 0.3% polyethyleneimine using a 96-well Brandel harverster. Four rapid 500 μl washes are performed with chilled Standard Binding Buffer to reduce non-specific binding. Filters are placed in 6 ml scintillation tubes and allowed to dry overnight. […] The tubes are capped, labeled, and counted by liquid scintillation counting. […] The filter mats are dried, then scintillant is melted onto the filters and the radioactivity retained on the filters is counted in a Microbeta scintillation counter. […]

dopamine D5, sequence (P21918 whole entry): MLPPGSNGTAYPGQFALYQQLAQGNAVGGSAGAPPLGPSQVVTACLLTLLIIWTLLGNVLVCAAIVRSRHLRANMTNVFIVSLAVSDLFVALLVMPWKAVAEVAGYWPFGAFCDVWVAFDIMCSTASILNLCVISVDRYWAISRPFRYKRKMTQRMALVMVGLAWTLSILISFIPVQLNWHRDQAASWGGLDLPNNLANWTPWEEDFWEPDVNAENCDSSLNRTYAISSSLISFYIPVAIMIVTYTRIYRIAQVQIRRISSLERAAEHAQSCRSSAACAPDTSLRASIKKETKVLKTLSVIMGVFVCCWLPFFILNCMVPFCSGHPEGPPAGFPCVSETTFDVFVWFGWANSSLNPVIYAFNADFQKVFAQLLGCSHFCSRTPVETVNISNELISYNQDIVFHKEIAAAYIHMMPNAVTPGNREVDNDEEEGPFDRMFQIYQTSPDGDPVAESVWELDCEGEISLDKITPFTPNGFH

COc1cc2c(cc1OC)C(=O)N(CCCCN1CCN(c3ccccc3OC)CC1)C2 [GFR-VII-285]
Ki (dopamine D5): 1890 nM
Ki (5-HT2C): 3430 nM
